Values of other authors in patent EP0502042B1, “PHARMACEUTICAL COMPOSITIONS” (PHARMACIA S.p.A., priority 1989, dated 1991).

System: mice

For `CN1C(=O)C(O)N=C(c2ccccc2)c2cc(Cl)ccc21` (stereo not shown) [Temazepam], the “oral LD 50” value is given as ~1000 mg/kg.
